Assays:
[1] = Pharmacokinetic experiment: passage of PPAR δ agonist through the placenta; type: in vivo, mice
Procedure: Pharmacokinetic experiment was conducted in order to confirm whether or not a PPAR δ agonist used in the present study, CMDD1111, passes through the placenta. CMDD 1111 was administered to 16-day pregnant mice at a concentration of 10 mg/kg, and then concentrations of the compound distributed in the bloods of mother animals and fetuses were analyzed for 24 hours. […] In the case of the fetuses, the blood concentration thereof tended to increase with the time, unlike the mother animals, and the maximum blood concentration thereof was 8.9 μM.

ApoE−/− mice = experiment: Arteriosclerosis prevention and treatment, en face analysis of arteries; type: in vivo; conditions: 14 weeks feedstuff, dosed over the last 4 weeks
Procedure: The in vivo test using ApoE−/− mice was conducted in order to verify the arteriosclerosis prevention and treatment effect of Compounds 5 and 9, the developed materials of the present invention. ApoE−/− mice, as an arteriosclerosis disease model, were fed with […] feedstuff (21% high fat and 1.25% high cholesterol feedstuff) over 14 weeks, to thereby induce arteriosclerosis, and then Compounds 5 and 9 were administered to the mice over the last 4 weeks. The medicine treatment manner was adopted. Arteries of the mice were resected, and then analyzed by the en face method. As the result, it was confirmed that Compounds 5 and 9 had 23% and 18% decreases in occurrence of arteriosclerosis, respectively.

hPPARg = molecular target: T1, hPPARg (Homo sapiens, UniProt P37231); experiment: Transfection assay in CV-1 cells, hPPARg; type: cell-based; conditions: luciferase reporter
T1 construct: expressed in transfected cells; host or cells: CV-1 cells
T1 sequence (P37231 1-505): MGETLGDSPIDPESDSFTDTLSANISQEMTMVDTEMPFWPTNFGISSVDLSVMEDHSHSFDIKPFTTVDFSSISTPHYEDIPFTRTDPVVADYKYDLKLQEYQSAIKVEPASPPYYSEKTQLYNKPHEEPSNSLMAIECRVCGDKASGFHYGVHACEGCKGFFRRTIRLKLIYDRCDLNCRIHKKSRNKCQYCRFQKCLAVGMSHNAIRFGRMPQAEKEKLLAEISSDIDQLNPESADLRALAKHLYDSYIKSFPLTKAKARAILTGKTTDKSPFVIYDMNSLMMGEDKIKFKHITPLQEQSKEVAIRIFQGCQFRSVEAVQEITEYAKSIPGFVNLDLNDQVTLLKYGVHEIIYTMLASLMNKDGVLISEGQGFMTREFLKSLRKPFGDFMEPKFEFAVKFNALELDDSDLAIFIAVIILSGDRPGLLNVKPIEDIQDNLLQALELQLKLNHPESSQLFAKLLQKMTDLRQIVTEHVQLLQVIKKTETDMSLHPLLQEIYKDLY
Procedure: (§1) This assay was conducted by using CV-1 cells. The cells were cultured on a 96-well plate with a DMEM medium containing 10% FBS, DBS (delipidated), and 1% penicillin/streptomycin in 37° C. of an incubator 5% of carbon dioxide. Test was conducted in four stages of cell inoculation, transfection, treatment with the developed material, and result confirmation. The CV-1 cells were inoculated on the 96-well plate at a cell density at 5,000 cells/well, and after 24 hours, transfection was performed. PPARs plasmid DNA, reporter DNA, and β-galactosidase DNA were mixed with a transfection reagent, and then used to treat the cells. The developed material was dissolved in dimethylsulfoxide (DMSO), and then was used to treat the cells by using media at various concentrations. After 24 hours of culturing in an incubator, the cells were lysed with a lysis buffer and luciferase activity and β-galactosidase activity were measured using a luminometer and a microplate reader. The measured luciferase value was calibrated with the β-galactosidase value, and this value was depicted on a graph and EC50 was determined.

10-week old C57BL/6 mice = experiment: Treadmill endurance test of adult mice exercised while administered; type: in vivo; conditions: 10 mg/kg/day oral with exercise over 30 days
Procedure: In addition, it was verified that the developed material was effective in enhancing muscle endurance and improving muscular function. 10-week old C57BL/6 mice were exercised while being orally administered with the developed material at a concentration of 10 mg/kg/day. The mice were exercised using a treadmill for 30 minutes once each day over 30 days. The mice were exercised under exercise conditions of 2 meter/min for 5 minutes, 5 meters/min for 5 minutes, 8 meters/min for 5 minutes, and 20 meters/min for 5 minutes, respectively. By the end of the test, muscle endurance enhancement and muscular function improvement effects were tested by using a treadmill.

hPPAR δ = molecular target: T2, hPPAR δ (Homo sapiens, UniProt Q03181); experiment: Transfection assay in CV-1 cells, hPPAR δ; type: cell-based; conditions: luciferase reporter
T2 construct: expressed in transfected cells; host or cells: CV-1 cells
T2 sequence (Q03181 1-441): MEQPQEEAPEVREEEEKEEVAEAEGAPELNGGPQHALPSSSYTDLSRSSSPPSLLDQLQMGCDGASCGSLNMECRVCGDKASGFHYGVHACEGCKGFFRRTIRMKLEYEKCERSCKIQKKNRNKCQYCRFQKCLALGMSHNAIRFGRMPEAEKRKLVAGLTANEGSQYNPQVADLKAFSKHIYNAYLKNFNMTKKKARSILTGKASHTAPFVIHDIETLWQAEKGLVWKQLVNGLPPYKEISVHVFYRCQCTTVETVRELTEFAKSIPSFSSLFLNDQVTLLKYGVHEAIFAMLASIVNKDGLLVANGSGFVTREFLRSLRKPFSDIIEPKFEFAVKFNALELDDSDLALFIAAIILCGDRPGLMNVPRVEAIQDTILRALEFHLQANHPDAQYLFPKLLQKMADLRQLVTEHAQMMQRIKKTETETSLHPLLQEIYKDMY
Procedure: as §1

[2] = tested on: mice with high-fat-induced diabetes; experiment: Glucose tolerance test (GTT) in mice with high-fat-induced diabetes; type: in vivo; conditions: 10 mg/Kg/day over 70 days; glucose 1.5 g/kg
Procedure: The glucose tolerance test (GTT) was conducted in order to verify the diabetes improvement effect of the material according to the present invention. Glucose (1.5 g/kg) was abdominally administer to mice with high-fat-induced diabetes, which was orally administered with medicine over 70 days, and then the blood glucose level change was measured for 2 hours. […] In contrast, the mouse control group administered with the vehicle […] normal blood glucose level even after 120 minutes.

HDL in serum = experiment: High-density lipoprotein cholesterol (HDL) in serum; type: in vivo; conditions: mice fed 10% fat feedstuff over 6 weeks
Description: High-density lipoprotein cholesterol (HDL) has been known to play an important role in treating lipid metabolic disorders such as arteriosclerosis and hyperlipidemia while lowering the cholesterol level of an epidermal cell and mitigating an inflammatory reaction. Serum was separated from the mice fed over a 6-week period of feedstuff containing 10% fat in order to confirm the high-density cholesterol increase effect of Compounds 5 and 9, which were the developed materials of the present invention.

SMILES	passage through the placenta ([1]; 16-day pregnant mice, 10 mg/kg)	half-life ([1]; female, mouse, blood, oral, mother animals, 16-day pregnant mice, 10 mg/kg, read-out: half-time (t1/2) (converted)) [h]	Cmax ([1]; female, mouse, blood, oral, mother animals, 16-day pregnant mice, 10 mg/kg, read-out: maximum blood concentration (Cmax)) [µM]	Tmax ([1]; female, mouse, blood, oral, mother animals, 16-day pregnant mice, 10 mg/kg, read-out: time for reaching the maximum blood concentration (Tmax)) [h]	maximum blood concentration ([1]; fetuses, mother given 10 mg/kg, 24 hours) [µM]	decrease in occurrence of arteriosclerosis (ApoE−/− mice) [%]	EC50 hPPARg (hPPARg)	increase in the running distance versus control (10-week old C57BL/6 mice) [fold]	increase in the running time versus control (10-week old C57BL/6 mice) [fold]	EC50 (hPPAR δ) [nM]	blood glucose level change between 20 and 40 minutes versus control [2]	complete glucose clearance after [2] [min]	HDL increase in serum (HDL in serum) [%]
Cc1cc(SC(Cc2ccccc2)c2sc(-c3ccc(C(F)(F)F)cc3)nc2C)ccc1OCC(=O)O (stereo not drawn) [CMDD1111]	passed through the placenta	9	38	1	8.9								
Cc1cc(SC(Cc2ccc(-c3ccc(F)cc3)cc2)c2sc(-c3ccc(C(F)(F)F)cc3)nc2C)ccc1OCC(=O)O (stereo not drawn) [Compound 9]						18	ia	1.5	1.5	3.9	rapid decrease	100	62
Cc1cc(SC(Cc2ccc(-c3ccccc3)cc2)c2sc(-c3ccc(C(F)(F)F)cc3)nc2C)ccc1OCC(=O)O (stereo not drawn) [Compound 5]						23	ia	1.8	1.7	3.3	rapid decrease	100	68
